Activity calls are given as the source filed them. The calls are words filed in the database; no cut-off is given here.
Legend:
[1] = (§1) Cytotoxicity against african green monkey Vero cells after 16 hrs by MTT assay; type: cell-based, Chlorocebus sabaeus; details: chlorocebus sabaeus, Vero cells
Glycoprotein G = molecular target: T1, Glycoprotein G (Henipavirus nipahense, UniProt Q9IH62); type: cell-based; details: vero
T1 sequence (Q9IH62 whole entry): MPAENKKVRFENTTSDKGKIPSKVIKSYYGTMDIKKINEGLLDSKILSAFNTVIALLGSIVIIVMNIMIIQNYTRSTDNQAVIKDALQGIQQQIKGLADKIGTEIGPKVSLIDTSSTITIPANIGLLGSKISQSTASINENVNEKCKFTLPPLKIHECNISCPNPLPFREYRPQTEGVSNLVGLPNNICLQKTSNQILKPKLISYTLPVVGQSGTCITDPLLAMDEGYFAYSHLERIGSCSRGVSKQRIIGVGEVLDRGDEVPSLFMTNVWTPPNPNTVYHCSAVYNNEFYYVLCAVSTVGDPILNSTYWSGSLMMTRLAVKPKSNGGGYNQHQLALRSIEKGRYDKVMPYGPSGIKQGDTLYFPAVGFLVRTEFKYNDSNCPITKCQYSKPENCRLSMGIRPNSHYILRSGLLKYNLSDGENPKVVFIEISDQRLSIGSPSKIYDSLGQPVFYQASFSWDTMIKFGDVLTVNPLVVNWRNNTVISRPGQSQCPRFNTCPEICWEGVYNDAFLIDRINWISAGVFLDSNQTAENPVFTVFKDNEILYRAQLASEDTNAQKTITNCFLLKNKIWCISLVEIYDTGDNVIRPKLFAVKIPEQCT

[2] = molecular target: T2, Glycoprotein G (Henipavirus nipahense) (UniProt Q9IH62); type: cell-based; details: Vero, 10 to 200 uM
T2 sequence (whole entry): T1 sequence (Q9IH62 whole entry)

Vero [3] = type: cell-based; details: Measles morbillivirus, 10 to 200 uM
Vero [4] = assay: Cytotoxicity against african green monkey Vero cells at 10 to 200 uM after 16 hrs by MTT assay; type: cell-based; details: chlorocebus sabaeus
[5] = Selectivity index, CC50 for african green monkey Vero cells to EC50 for Measles virus hemagglutininin/F-mediated cell-cell fusion; type: toxicity, cell-based; details: read-out: Ratio CC50/EC50
Nipah virus = assay: Inhibition of Nipah virus-mediated cell fusion infected in african green monkey Vero cells assessed as reduction in virus-induced syncytium formation after 24 hrs relative to control; type: functional, organism-based; details: Henipavirus nipahense
Vero [6] = assay: as §1; type: cell-based, Chlorocebus sabaeus; details: Chlorocebus sabaeus, Vero, 16 h

Which results are given for `CCn1cc(C(=O)Nc2ccc(F)c(Cl)c2)c(=O)c2ccc(C(F)(F)F)cc21`?
CC50 at 16 h [1]: > 20 µM; EC50 (Glycoprotein G): Not Active

Which CC50 at 16 h [1] does the source give for `C=CCN1[C@@H](c2ccc([N+](=O)[O-])cc2)C(C(=O)OCC)=C(O)C(C(=O)OCC)[C@@H]1c1ccc([N+](=O)[O-])cc1` (some centres not stated) here?
Its CC50 at 16 h is greater than 20 µM.

Which results are given for `CCn1cc(C(=O)NCC2CC2)c(=O)c2cc(C(F)(F)F)ccc21`?
Activity [2]: inactive; Activity (Vero [3]): inactive; Activity (Vero [4]): Not Active

For `NC(=O)C1CCN(c2cc3c(cc2F)c(=O)c(C(=O)O)cn3C2CC2)CC1`, which Activity [2] is on record?
Its Activity is “inactive”.

And the Activity (Vero [3])?
Its Activity is “inactive”.

What about the Activity (Vero [4]) of the same molecule?
The Activity was “Not Active”.

Which results are given for `CCn1cc(C(=O)Nc2ccccc2CO)c(=O)c2ccc(C(F)(F)F)cc21`?
Activity [2]: inactive; Activity (Vero [3]): inactive; Activity (Vero [4]): Not Active

With `CCn1cc(C(=O)NCc2ccccn2)c(=O)c2cc(C(F)(F)F)ccc21` as the molecule, how does the Activity [2] read?
The Activity was “inactive”.

What about the Activity (Vero [3]) of the same molecule?
Its Activity is “inactive”.

And the Activity (Vero [4])?
The Activity was “Not Active”.

For `CCn1cc(C(=O)NCc2ccccn2)c(=O)c2cc(F)ccc21`, which Activity [2] is on record?
The Activity was “inactive”.

And the Activity (Vero [3])?
The Activity was “inactive”.

And the Activity (Vero [4])?
Its Activity is “Not Active”.

What does the source list for `CCn1cc(C(=O)NCc2ccc(Cl)cc2)c(=O)c2ccc(C(F)(F)F)cc21`?
CC50 at 16 h [1]: > 20 µM; selectivity ratio [5]: > 10

What does the source list for `CCn1cc(C(=O)NCc2ccc(N)cc2)c(=O)c2cc(C(F)(F)F)ccc21`?
Activity [2]: inactive; Activity (Vero [3]): inactive; Activity (Vero [4]): Not Active

Which results are given for `CCn1cc(C(=O)NCC2CC2)c(=O)c2cc(F)ccc21`?
Activity [2]: inactive; Activity (Vero [3]): inactive; Activity (Vero [4]): Not Active

What does the source list for `CCOC(=O)C1CCN(c2cc3c(cc2F)c(=O)c(C(=O)NCc2ccc(Cl)cc2Cl)cn3CC)CC1`?
CC50 at 16 h [1]: 10 µM; Activity (Nipah virus): Dose-dependent effect

With `CCn1cc(C(=O)NCc2ccc(N)cc2)c(=O)c2cc(F)ccc21` as the molecule, how does the Activity [2] read?
Its Activity is “inactive”.

And the Activity (Vero [3])?
The Activity was “inactive”.

And the Activity (Vero [4])?
The Activity was “Not Active”.

For `CCOC(=O)N1CCN(c2cc3c(cc2F)c(=O)c(C(=O)NCc2ccc(Cl)cc2Cl)cn3C2CC2)CC1`, which CC50 at 16 h [1] is on record?
The CC50 at 16 h was 15 µM.

For `NC(=O)C1CCN(c2cc3c(cc2F)c(=O)c(C(=O)NCc2ccc(Cl)cc2Cl)cn3C2CC2)CC1`, which CC50 at 16 h [1] is on record?
The CC50 at 16 h was greater than 20 µM.

And the Activity (Nipah virus)?
The Activity was “Dose-dependent effect”.

Which results are given for `CCn1cc(C(=O)NCc2ccc(OC)cc2)c(=O)c2cc(F)c(Cl)cc21`?
Activity [2]: inactive; Activity (Vero [3]): inactive; Activity (Vero [4]): Not Active

With `CCOC(=O)C1CCN(c2cc3c(cc2F)c(=O)c(C(=O)O)cn3CC)CC1` as the molecule, how does the Activity [2] read?
Its Activity is “inactive”.

And the Activity (Vero [3])?
Its Activity is “inactive”.

What about the Activity (Vero [4]) of the same molecule?
Its Activity is “Not Active”.

With `Nc1ccc2oc(Cc3ccccc3)nc2c1` as the molecule, how does the EC50 (Vero [6]) read?
Its EC50 is 8 µM.

What about the selectivity ratio [5] of the same molecule?
Its selectivity ratio is 20.

What about the Activity (Nipah virus) of the same molecule?
Its Activity is “Dose-dependent effect”.

With `CCn1cc(C(=O)NCc2ccc(OC)cc2)c(=O)c2cc(C(F)(F)F)ccc21` as the molecule, how does the Activity [2] read?
Its Activity is “inactive”.

And the Activity (Vero [3])?
The Activity was “inactive”.

What about the Activity (Vero [4]) of the same molecule?
Its Activity is “Not Active”.

For `CCOC(=O)N1CCN(c2cc3c(cc2F)c(=O)c(C(=O)NCc2ccc(Cl)cc2Cl)cn3CC)CC1`, which CC50 at 16 h [1] is on record?
Its CC50 at 16 h is greater than 20 µM.
